According to patent publication US20110223633A1, “METHODS AND REAGENTS FOR ENRICHMENT AND CHARACTERIZATION OF PHOSPHORYLATED BIOMOLECULES” (priority 2008, published 2011):
Several values for one entry are separate records, joined by “and”; a condition that tells them apart may be missing. Identical values can stand only once.

System: lipid droplet (LD) proteins from mouse white adipose tissue (WAT)
Test: Stoichiometry of LD protein phosphorylation by isotope tagging and enzymatic (BIAP) dephosphorylation after CL316,243 injection
Format: in vivo
Procedure: Purification of lipid droplets (LD) from mouse white adipose tissue (WAT). All animals were maintained in the Canadian Council on Animal Care (CCAC)-accredited animal facilities of the CHU Ste-Justine Research Center. Two month-old (˜25-29 g BW) male C57BU6J mice, were purchased from Charles River Canada (St. Constant, PQ, Canada), and housed for an additional month at 25° C. in an animal facility with 12:12 h light-dark cycles. During this time, animals were fed ad libitum with 5K chow (˜18% protein, ˜6% fat, ˜5% fiber). […] The homogenate was filtered through a nylon mesh and centrifuged at 17 g for 2 min. Pellet and infranatant were removed and the floating lipid droplets resuspended in 2 ml of the homogenization buffer and centrifuged as above. After the second wash with 50 mM TRIS, pH 7.4, containing 1 M NaCl (Fisher), the LD were snap-frozen and kept at −80° C. until further use.
Extraction of LD proteins and preparation of peptide digests. Purified LD preparations (average wet weight 250 mg) were resuspended in 1 ml of ice-cold acetone, sonicated for 25 sec at 80 W, incubated for 16 h at −20° C. and centrifuged for 10 min at 13,000 g. The supernatants were discharged and pellets were re-extracted twice with ice-cold acetone (1 h each time). After removal of residual acetone under a stream of nitrogen, the protein pellets were re-suspended in 300 μl of a 0.1% sodium 3-[(2-methyl-2-undecyl-1,3-dioxolan-4-yl)methoxyl]-1-propanesulfonate (RapiGest™ SF) in 50 mM NH4HCO3, pH 7.8, containing 5 mM DTT, then sonicated for 10-25 sec and incubated in a boiling bath for 5 min. After 5-min centrifugation at 13,000 g, supernatants were treated for 30 min with IAA in the dark (final concentration 15 mM), and digested overnight with trypsin (Promega, sequencing grade; trypsin to protein ratio 1:50). After digestion, samples were supplemented with TFA (final concentration 0.5%), incubated at 37° C. for 1 h and centrifuged at 13,000 g for 10-min to remove RapiGest™ SF.
Labeling and dephosphorylation of LD peptides. Peptide digests (˜200 μg of protein) were de-salted by the reverse phase chromatography on macro-C18 spin columns (Harvard apparatus) eluted with 70% acetonitrile in water, dried in a SpeedVac™ Concentrator (Savant) and labeled with heavy or light SIMPL (Stable Isotope-containing Multiplex Peptide Labels) isotope tags as described (Fedjaev et al., 2007, supra). After adjusting pH to 8.0 with 500 mM NH4HCO3, samples were supplemented with 3 units of bovine intestinal alkaline phosphatase (BIAP, Sigma, P-5521) and incubated for 3 h at 37° C. BIAP reaction was terminated by addition of concentrated TCA (Sigma) to a final concentration 10%, followed by 1 h incubation on ice and 30-min centrifugation at 13,000 g. Samples containing dephosphorylated peptides were then mixed 1:1 with untreated samples, extracted twice with ethylacetate (Sigma) to remove the excess of unreacted SIMPL labels and analyzed by 2D-LC-MS/MS as described below.
HPLC of peptides on weak anion exchange (WAX) column. Offline WAX HPLC was performed on an Agilent™ 1100 Series liquid chromatography system. Peptides were loaded on C18 (Jupiter™ 4 μm Proteo 90 Å 50×1 mm, Phenomenex) column in 10 mM ammonium acetate containing 10% ACN, and eluted with step gradient of 70% of ACN directly on the WAX (PolySulfoethyl A […] 5 μm 300 Å) column. The column was washed with 10 mM ammonium acetate buffer containing 10% ACN for 10 min and peptides were eluted with 0-100% gradient of 2 M ammonium formate, 10% ACN. […] fractions of 50 μl were collected. Collected fractions were immediately acidified with FA (final concentration 0.2%) and analyzed by LC-MS/MS.
μLC-MS/MS analysis of LD peptides. Peptides were analyzed using a LC-MS/MS instrument consisting of an Agilent™ 1100 Series nanoflow liquid chromatography system and LC/MSD-Trap-SL™ ion trap mass spectrometer (Agilent Technologies, Santa Clara, Calif., USA). […]

Compound: C[C@H](Cc1ccc2c(c1)OC(C(=O)[O-])(C(=O)[O-])O2)NC[C@H](O)c1cccc(Cl)c1.[Na+].[Na+] [CL316,243, disodium 5-[(2R)-2-[[(2R)-2-(3-Chlorophenyl)-2-hydroxyethyl]amino]propyl]-1,3-benzodioxole-2,2-dicarboxylate]
- Mean isotope ratio Treated, peptide KLLVSSEDYGR (Alpha II spectrin, LD from WAT, 1 mg/kg i.p., 15 min): 3.47
- Ratio Treated, peptide SSEEIESAFR (Alpha-II spectrin, z 2, m/z 668.3, LD from WAT of treated mice): 0.64(2)
- Ratio Treated, peptide DLTNVQNLQK (Alpha-II spectrin, z 2, m/z 674.3, LD from WAT of treated mice): 0.98(1)
- Ratio Treated, peptide SQLLGSAHEVQR (Alpha-II spectrin, z 2, m/z 750.4, LD from WAT of treated mice): 1.05(4)
- Ratio Treated, peptide DTEQVDNWMSK (Alpha-II spectrin, z 2, m/z 764.7, LD from WAT of treated mice): 1.03(1)
- Ratio Treated, peptide TKQDEVNAAWQR (Alpha-II spectrin, z 2, m/z 813.4, LD from WAT of treated mice): 0.84(1)
- Ratio Treated, peptide EANELQQWITEK (Alpha-II spectrin, z 2, m/z 832.4, LD from WAT of treated mice): 1.1(3)
- Ratio Treated, peptide MQHNLEQQIQAR (Alpha-II spectrin, z 2, m/z 835.9, LD from WAT of treated mice): 0.94(3)
- Ratio Treated, peptide HQAFEAELSANQSR (Alpha-II spectrin, z 2, m/z 881.9, LD from WAT of treated mice): 1.24(2)
- Ratio Treated, peptide LIQEQHPEEELIK (Alpha-II spectrin, z 2, m/z 891.5, LD from WAT of treated mice): 1.09(4)
- Ratio Treated, peptide HQAFEAELHANADR (Alpha-II spectrin, z 2, m/z 892.5, LD from WAT of treated mice): 0.84(3)
- Ratio Treated, peptide HQLLEADISAHEDR (Alpha-II spectrin, z 2, m/z 908.1, LD from WAT of treated mice): 1.04(2)
- Ratio Treated, peptide GNAMVEEGHFAAEDVK (Alpha-II spectrin, z 2, m/z 940, LD from WAT of treated mice): 1.1(2)
- Ratio Treated, peptide AQLADSFHLQQFFR (Alpha-II spectrin, z 2, m/z 945, LD from WAT of treated mice): 1.04(1)
- Ratio Treated, peptide LSDDNTIGQEEIQQR (Alpha-II spectrin, z 2, m/z 961.3, LD from WAT of treated mice): 1.25(1)
- Ratio Treated, peptide DLAALGDKVNSLGETAQR (Alpha-II spectrin, z 2, m/z 1020, LD from WAT of treated mice): 1.29(1)
- Ratio Treated, peptide SSLSSAQADFNQLAELDR (Alpha-II spectrin, z 2, m/z 1064, LD from WAT of treated mice): 0.99(3)
- Ratio Treated, peptide SADESGQALLAASHYASDEVR (Alpha-II spectrin, z 2, m/z 1177, LD from WAT of treated mice): 1.14(3)
- Ratio Treated, peptide NQALNTDNYGHDLASVQALQR (Alpha-II spectrin, z 2, m/z 1253, LD from WAT of treated mice): 0.91(3)
- Ratio Treated, peptide HQAFEAELHANADR (Alpha-II spectrin, z 3, m/z 597.6, LD from WAT of treated mice): 0.81(1)
- Ratio Treated, peptide SADESGQALLAASHYASDEVR (Alpha-II spectrin, z 3, m/z 785, LD from WAT of treated mice): 1.1(3)
- Mean isotope ratio Treated, peptide THVDSLR (Apolipoprotein A-I, BIAP-treated/untreated, LD from WAT, 1 mg/kg i.p., 15 min): −1.12
- Ratio Treated, peptide (K)VQPYLDEFQK(K) (Apolipoprotein A-I, z 2, m/z 721.2, LD from WAT of treated mice): 0.97(2)
- Ratio Treated, peptide (R)TQLAPHSEQMR(E) (Apolipoprotein A-I, z 2, m/z 736.9, LD from WAT of treated mice): 0.99(1)
- Ratio Treated, peptide (K)SNPTLNEYHTR(A) (Apolipoprotein A-I, z 2, m/z 753.9, LD from WAT of treated mice): 1(4)
- share of HSL peptide SVSEAALAQPEGLLGTDTLKK phosphorylated (LD of stimulated adipocytes): ~80%
- Mean isotope ratio Treated, peptide SVSEAALAQPEGLLGTDTLK (Lipase, hormone sensitive, LD from WAT, 1 mg/kg i.p., 15 min): 5.1
- Ratio Treated, peptide (R)LILTPPAAPLN(—) (Lipase, hormone sensitive, z 2, m/z 647.8, LD from WAT of treated mice): 0.78(1)
- Ratio Treated, peptide (R)AAFPEGFHPR(R) (Lipase, hormone sensitive, z 2, m/z 652.3, LD from WAT of treated mice): 1.14(2)
- Ratio Treated, peptide (R)QATEFCVQR(I) (Lipase, hormone sensitive, z 2, m/z 657.2, LD from WAT of treated mice): 1.01(3)
- Ratio Treated, peptide (K)HCDLLGSTGER(I) (Lipase, hormone sensitive, z 2, m/z 710.3, LD from WAT of treated mice): 1(4)
- Ratio Treated, peptide (K)CVSAYSGTEAEDHFDSDQK(A) (Lipase, hormone sensitive, z 2, m/z 1164, LD from WAT of treated mice): 1.08(1)
- Ratio Treated, peptide (K)CVSAYSGTEAEDHFDSDQK(A) (Lipase, hormone sensitive, z 3, m/z 774.6, LD from WAT of treated mice): 0.92(1)
- Mean isotope ratio Treated, peptide FVEGLPINDFSR(E) (Malate dehydrogenase, cytoplasmic, LD from WAT, 1 mg/kg i.p., 15 min): 3.08
- Ratio Treated, peptide (K)GEFITTVQQR(G) (Malate dehydrogenase, cytoplasmic, z 2, m/z 677.3, LD from WAT of treated mice): 1.18(2)
- Mean isotope ratio Treated, peptide GLSAPSCPNGLDDK (Perilipin, LD from WAT, 1 mg/kg i.p., 15 min): 1.4
- Mean isotope ratio Treated, peptide LSLMEPESEFRDIDNPSAEAER (Perilipin, LD from WAT, 1 mg/kg i.p., 15 min, 1 mg/kg): 1.6 and 1.63
- Ratio Treated, peptide GLDHLEEK (Perilipin, z 2, m/z 558.3, LD from WAT of treated mice): 1.05(4)
- Ratio Treated, peptide EVTALPNPR (Perilipin, z 2, m/z 587.2, LD from WAT of treated mice): 1.1(4)
- Ratio Treated, peptide ETAEYAANTR (Perilipin, z 2, m/z 650.7, LD from WAT of treated mice): 0.71(1)
- Ratio Treated, peptide IPALQYPPEK (Perilipin, z 2, m/z 665.5, LD from WAT of treated mice): 1.01(4)
- Ratio Treated, peptide EAHPLVASVCNAYEK (Perilipin, z 2, m/z 932, LD from WAT of treated mice): 1.06(4)
- Ratio Treated, peptide VLQLPWSGTCECFQK (Perilipin, z 2, m/z 1020, LD from WAT of treated mice): 0.98(4)
- Ratio Treated, peptide GVQGASNLAAWSMEPVVR (Perilipin, z 2, m/z 1024, LD from WAT of treated mice): 1(2)
- Ratio Treated, peptide GVTDNVVDTVVHYVPLPR (Perilipin, z 2, m/z 1078, LD from WAT of treated mice): 0.93(3)
- Ratio Treated, peptide GPTLLDGDLPEQENVLQR (Perilipin, z 2, m/z 1085, LD from WAT of treated mice): 1.05(4)
- Ratio Treated, peptide VLQLPWSGTCECFQK (Perilipin, z 3, m/z 680.8, LD from WAT of treated mice): 1.17(2)
- Ratio Treated, peptide GVQGASNLAAWSMEPVVR (Perilipin, z 3, m/z 683, LD from WAT of treated mice): 1(2)
- Ratio Treated, peptide VVEFLLPPDKESAPSSGR (Perilipin, z 3, m/z 701.8, LD from WAT of treated mice): 1.11(4)
- Ratio Treated, peptide GVTDNVVDTVVHYVPLPR (Perilipin, z 3, m/z 719.3, LD from WAT of treated mice): 1(3)
- Ratio Treated, peptide GPTLLDGDLPEQENVLQR (Perilipin, z 3, m/z 723.9, LD from WAT of treated mice): 1.01(4)
- Mean isotope ratio Treated, peptide SHDTTSNTLTQLLAK (Protein kinase C delta binding protein, LD from WAT, 1 mg/kg i.p., 15 min): 1.11
- Ratio Treated, peptide (R)LEANHGLLVAR(G) (Protein kinase C delta binding protein, z 2, m/z 684.4, LD from WAT of treated mice): 0.94(2)
- Ratio Treated, peptide (K)EDPEKPVLQIESAA(—) (Protein kinase C delta binding protein, z 2, m/z 854.9, LD from WAT of treated mice): 0.74(1)
